Assay results reported in patent US20250101023A1, “HETEROARYL DERIVATIVE AND USES THEREOF” (IUCF-HYU (INDUSTRY-UNIVERSITY COOPERATION FOUNDATION …, priority 2022, published 2025).

Columns and labels:
[1] = system: Pol II CTD (Ser2) phosphorylation; assay: Western blot, Pol II CTD Ser2 phosphorylation; assay type: cell-based; conditions: SK-Br3 and HCC1954 cell lines, 40 and 200 nM, 2 hours
SK-Br3 xenograft = SK-Br3 xenograft model, anticancer efficacy; assay type: in vivo, mouse; conditions: 10 mg/kg and 20 mg/kg, i.p. twice a week
Description: A mouse efficacy experiment was conducted after obtaining approval from the Laboratory Animal Ethics Committee of GenNBio (Review No.: GN-IACUC-Research 22-02-07). SK-Br3 and HCC-1954 cells (1×10^6 cells each) mixed with Matrigel (BD Biosciences) were […] injected into 5-week-old female Balb/c nude mice (Orient Bio, Seongnam, Republic of Korea). After tumors reached a size of about 100 mm^3, the compound, trastuzumab (20 mg/kg), and the like were intraperitoneally injected into mice (n=8 per group)(vehicle: 8% DMSO, 4% Tween-80, 88% PBS). The tumor size was measured twice weekly for about 4 weeks and calculated as follows. Volume (mm^3)=(a×b^2)/2; “a”, maximum diameter; “b”, vertical diameter

CDK9/cyclin K = CDK9/cyclin K (Homo sapiens (Human), UniProt P50750); assay: Kinome-wide profiling; assay type: biochemical; conditions: read-out: % Residual Activity (mean)
EPHA6 = EPHA6 (Homo sapiens (Human), UniProt Q9UF33); assay: Kinome-wide profiling; assay type: biochemical; conditions: read-out: % Residual Activity (mean)
DYRK1/DYRKIA = DYRK1/DYRKIA (Homo sapiens (Human), UniProt Q13627); assay: Kinome-wide profiling; assay type: biochemical; conditions: read-out: % Residual Activity (mean)
MYLK4 = MYLK4 (Homo sapiens (Human), UniProt Q86YV6); assay: Kinome-wide profiling; assay type: biochemical; conditions: read-out: % Residual Activity (mean)
EPHA5 = EPHA5 (Homo sapiens (Human), UniProt P54756); assay: Kinome-wide profiling; assay type: biochemical; conditions: read-out: % Residual Activity (mean)
CDK14/cyclin Y (PFTK1) = CDK14/cyclin Y (PFTK1) (Homo sapiens (Human), UniProt O94921); assay: Kinome-wide profiling; assay type: biochemical; conditions: read-out: % Residual Activity (mean)
CK1a1 = CK1a1 (Homo sapiens (Human), UniProt P48729); assay: Kinome-wide profiling; assay type: biochemical; conditions: read-out: % Residual Activity (mean)
CK1g2 = CK1g2 (Homo sapiens (Human), UniProt P78368); assay: Kinome-wide profiling; assay type: biochemical; conditions: read-out: % Residual Activity (mean)
STK38/NDR1 = STK38/NDR1 (Homo sapiens (Human), UniProt Q15208); assay: Kinome-wide profiling; assay type: biochemical; conditions: read-out: % Residual Activity (mean)
FGFR1 = FGFR1 (Homo sapiens (Human), UniProt P11362); assay: Kinome-wide profiling; assay type: biochemical; conditions: read-out: % Residual Activity (mean)
EPHA7 = EPHA7 (Homo sapiens (Human), UniProt Q15375); assay: Kinome-wide profiling; assay type: biochemical; conditions: read-out: % Residual Activity (mean)
TIE2/TEK = TIE2/TEK (Homo sapiens (Human), UniProt Q02763); assay: Kinome-wide profiling; assay type: biochemical; conditions: read-out: % Residual Activity (mean)
TXK = TXK (Homo sapiens (Human), UniProt P42681); assay: Kinome-wide profiling; assay type: biochemical; conditions: read-out: % Residual Activity (mean)
JNK1 = JNK1 (Homo sapiens (Human), UniProt P45983); assay: Kinome-wide profiling; assay type: biochemical; conditions: read-out: % Residual Activity (mean)
HIPK4 = HIPK4 (Homo sapiens (Human), UniProt Q8NE63); assay: Kinome-wide profiling; assay type: biochemical; conditions: read-out: % Residual Activity (mean)
BMPR2 = BMPR2 (Homo sapiens (Human), UniProt Q13873); assay: Kinome-wide profiling; assay type: biochemical; conditions: read-out: % Residual Activity (mean)
MST2/STK3 = MST2/STK3 (Homo sapiens (Human), UniProt Q13188); assay: Kinome-wide profiling; assay type: biochemical; conditions: read-out: % Residual Activity (mean)
FGR = FGR (Homo sapiens (Human), UniProt P09769); assay: Kinome-wide profiling; assay type: biochemical; conditions: read-out: % Residual Activity (mean)
RSK3 = RSK3 (Homo sapiens (Human), UniProt Q15349); assay: Kinome-wide profiling; assay type: biochemical; conditions: read-out: % Residual Activity (mean)
CAMK2b = CAMK2b (Homo sapiens (Human), UniProt Q13554); assay: Kinome-wide profiling; assay type: biochemical; conditions: read-out: % Residual Activity (mean)
PLK1 = PLK1 (Homo sapiens (Human), UniProt P53350); assay: Kinome-wide profiling; assay type: biochemical; conditions: read-out: % Residual Activity (mean)
TLK2 = TLK2 (Homo sapiens (Human), UniProt Q86UE8); assay: Kinome-wide profiling; assay type: biochemical; conditions: read-out: % Residual Activity (mean)
PKN3/PRK3 = PKN3/PRK3 (Homo sapiens (Human), UniProt Q6P5Z2); assay: Kinome-wide profiling; assay type: biochemical; conditions: read-out: % Residual Activity (mean)
CK2a = CK2a (Homo sapiens (Human), UniProt P68400); assay: Kinome-wide profiling; assay type: biochemical; conditions: read-out: % Residual Activity (mean)
SSTK/TSSK6 = SSTK/TSSK6 (Homo sapiens (Human), UniProt Q9BXA6); assay: Kinome-wide profiling; assay type: biochemical; conditions: read-out: % Residual Activity (mean)
NEK6 = NEK6 (Homo sapiens (Human), UniProt Q9HC98); assay: Kinome-wide profiling; assay type: biochemical; conditions: read-out: % Residual Activity (mean)
PKA = PKA (Homo sapiens (Human), UniProt P17612); assay: Kinome-wide profiling; assay type: biochemical; conditions: read-out: % Residual Activity (mean)
NEK11 = NEK11 (Homo sapiens (Human), UniProt Q8NG66); assay: Kinome-wide profiling; assay type: biochemical; conditions: read-out: % Residual Activity (mean)
PLK3 = PLK3 (Homo sapiens (Human), UniProt Q9H4B4); assay: Kinome-wide profiling; assay type: biochemical; conditions: read-out: % Residual Activity (mean)
MKK7 = MKK7 (Homo sapiens (Human), UniProt O14733); assay: Kinome-wide profiling; assay type: biochemical; conditions: read-out: % Residual Activity (mean)
IRAK2 = IRAK2 (Homo sapiens (Human), UniProt O43187); assay: Kinome-wide profiling; assay type: biochemical; conditions: read-out: % Residual Activity (mean)
PIM1 = PIM1 (Homo sapiens (Human), UniProt P11309); assay: Kinome-wide profiling; assay type: biochemical; conditions: read-out: % Residual Activity (mean)
GRK2 = GRK2 (Homo sapiens (Human), UniProt P25098); assay: Kinome-wide profiling; assay type: biochemical; conditions: read-out: % Residual Activity (mean)
GRK2, sequence (P25098 whole entry): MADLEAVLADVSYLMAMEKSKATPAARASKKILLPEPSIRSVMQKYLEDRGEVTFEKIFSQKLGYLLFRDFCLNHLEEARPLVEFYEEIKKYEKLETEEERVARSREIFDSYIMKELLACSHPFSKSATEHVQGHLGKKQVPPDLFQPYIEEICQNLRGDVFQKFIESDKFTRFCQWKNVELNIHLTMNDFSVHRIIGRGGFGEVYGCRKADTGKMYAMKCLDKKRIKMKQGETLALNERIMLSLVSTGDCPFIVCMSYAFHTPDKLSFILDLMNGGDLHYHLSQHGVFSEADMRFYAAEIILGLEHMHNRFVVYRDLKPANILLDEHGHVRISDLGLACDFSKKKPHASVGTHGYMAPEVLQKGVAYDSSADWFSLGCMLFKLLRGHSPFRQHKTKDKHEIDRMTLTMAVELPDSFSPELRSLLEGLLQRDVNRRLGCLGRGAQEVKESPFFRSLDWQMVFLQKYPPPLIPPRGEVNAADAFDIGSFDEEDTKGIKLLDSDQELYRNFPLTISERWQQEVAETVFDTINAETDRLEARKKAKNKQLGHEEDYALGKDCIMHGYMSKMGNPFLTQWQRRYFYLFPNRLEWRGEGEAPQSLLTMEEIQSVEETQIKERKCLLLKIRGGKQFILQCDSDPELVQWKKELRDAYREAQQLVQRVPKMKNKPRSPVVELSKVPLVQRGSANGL

CAMK2b, sequence (Q13554 whole entry): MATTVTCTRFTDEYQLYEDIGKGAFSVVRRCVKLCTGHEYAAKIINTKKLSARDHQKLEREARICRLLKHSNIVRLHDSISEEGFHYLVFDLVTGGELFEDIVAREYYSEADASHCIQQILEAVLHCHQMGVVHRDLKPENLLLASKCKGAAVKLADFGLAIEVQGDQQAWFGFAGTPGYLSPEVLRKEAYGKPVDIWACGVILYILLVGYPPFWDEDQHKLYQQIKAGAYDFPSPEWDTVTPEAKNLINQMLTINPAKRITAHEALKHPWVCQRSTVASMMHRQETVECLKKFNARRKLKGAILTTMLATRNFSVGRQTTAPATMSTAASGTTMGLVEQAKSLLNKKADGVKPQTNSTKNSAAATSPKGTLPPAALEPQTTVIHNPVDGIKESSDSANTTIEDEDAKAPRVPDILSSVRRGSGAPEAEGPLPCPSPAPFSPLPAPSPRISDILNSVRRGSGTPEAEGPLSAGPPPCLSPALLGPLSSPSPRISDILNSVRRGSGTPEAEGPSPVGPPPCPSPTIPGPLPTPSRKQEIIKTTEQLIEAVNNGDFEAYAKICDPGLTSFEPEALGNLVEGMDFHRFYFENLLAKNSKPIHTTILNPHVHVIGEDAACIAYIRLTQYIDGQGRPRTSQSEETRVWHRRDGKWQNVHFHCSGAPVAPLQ
CK1a1, sequence (P48729 whole entry): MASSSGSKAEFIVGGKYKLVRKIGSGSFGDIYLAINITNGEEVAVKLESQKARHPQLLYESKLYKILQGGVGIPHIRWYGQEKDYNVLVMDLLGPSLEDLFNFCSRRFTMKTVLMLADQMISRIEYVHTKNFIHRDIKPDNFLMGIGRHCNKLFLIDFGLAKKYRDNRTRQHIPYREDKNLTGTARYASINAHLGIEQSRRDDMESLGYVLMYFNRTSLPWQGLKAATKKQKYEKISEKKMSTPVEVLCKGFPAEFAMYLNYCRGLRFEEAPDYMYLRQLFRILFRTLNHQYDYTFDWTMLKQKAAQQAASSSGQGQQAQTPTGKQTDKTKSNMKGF
IRAK2, sequence (O43187 whole entry): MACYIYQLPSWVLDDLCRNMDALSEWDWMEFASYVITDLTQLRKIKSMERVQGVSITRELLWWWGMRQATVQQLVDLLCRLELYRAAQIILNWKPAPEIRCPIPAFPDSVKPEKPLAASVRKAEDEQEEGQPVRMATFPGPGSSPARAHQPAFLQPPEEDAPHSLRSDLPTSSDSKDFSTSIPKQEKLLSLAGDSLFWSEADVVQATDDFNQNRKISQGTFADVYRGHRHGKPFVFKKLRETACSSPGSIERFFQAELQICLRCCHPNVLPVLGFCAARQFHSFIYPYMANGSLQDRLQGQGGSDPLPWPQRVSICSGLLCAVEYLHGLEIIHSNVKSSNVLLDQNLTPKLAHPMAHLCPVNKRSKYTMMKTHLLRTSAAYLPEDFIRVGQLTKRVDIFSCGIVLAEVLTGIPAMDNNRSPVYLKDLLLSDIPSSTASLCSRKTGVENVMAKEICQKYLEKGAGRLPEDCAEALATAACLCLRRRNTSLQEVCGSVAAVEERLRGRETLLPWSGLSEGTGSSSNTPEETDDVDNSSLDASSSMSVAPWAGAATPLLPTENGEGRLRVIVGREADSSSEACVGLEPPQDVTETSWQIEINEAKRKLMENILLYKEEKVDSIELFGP
MST2/STK3, sequence (Q13188 whole entry): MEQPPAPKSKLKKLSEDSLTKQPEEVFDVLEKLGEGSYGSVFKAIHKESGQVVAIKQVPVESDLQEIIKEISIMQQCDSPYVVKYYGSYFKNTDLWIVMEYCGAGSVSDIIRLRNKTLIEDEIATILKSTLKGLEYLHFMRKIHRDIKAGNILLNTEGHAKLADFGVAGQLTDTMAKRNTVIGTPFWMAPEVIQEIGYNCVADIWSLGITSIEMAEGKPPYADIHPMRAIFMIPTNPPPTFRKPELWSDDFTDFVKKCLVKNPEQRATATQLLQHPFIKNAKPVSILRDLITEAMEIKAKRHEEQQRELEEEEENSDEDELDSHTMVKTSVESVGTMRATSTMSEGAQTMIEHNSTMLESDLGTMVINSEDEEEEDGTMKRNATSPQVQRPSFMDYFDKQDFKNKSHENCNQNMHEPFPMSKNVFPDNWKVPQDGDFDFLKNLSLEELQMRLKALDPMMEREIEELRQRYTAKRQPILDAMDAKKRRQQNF
PIM1, sequence (P11309 whole entry): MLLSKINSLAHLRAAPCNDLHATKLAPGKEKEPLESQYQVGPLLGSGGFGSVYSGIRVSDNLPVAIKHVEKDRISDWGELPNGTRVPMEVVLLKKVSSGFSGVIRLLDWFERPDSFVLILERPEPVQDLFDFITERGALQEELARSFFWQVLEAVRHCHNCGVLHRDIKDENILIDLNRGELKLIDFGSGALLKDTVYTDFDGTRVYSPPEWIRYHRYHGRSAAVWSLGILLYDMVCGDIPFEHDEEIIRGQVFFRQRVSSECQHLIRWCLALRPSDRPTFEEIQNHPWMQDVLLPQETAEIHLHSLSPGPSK
EPHA5, sequence (P54756 25-1037): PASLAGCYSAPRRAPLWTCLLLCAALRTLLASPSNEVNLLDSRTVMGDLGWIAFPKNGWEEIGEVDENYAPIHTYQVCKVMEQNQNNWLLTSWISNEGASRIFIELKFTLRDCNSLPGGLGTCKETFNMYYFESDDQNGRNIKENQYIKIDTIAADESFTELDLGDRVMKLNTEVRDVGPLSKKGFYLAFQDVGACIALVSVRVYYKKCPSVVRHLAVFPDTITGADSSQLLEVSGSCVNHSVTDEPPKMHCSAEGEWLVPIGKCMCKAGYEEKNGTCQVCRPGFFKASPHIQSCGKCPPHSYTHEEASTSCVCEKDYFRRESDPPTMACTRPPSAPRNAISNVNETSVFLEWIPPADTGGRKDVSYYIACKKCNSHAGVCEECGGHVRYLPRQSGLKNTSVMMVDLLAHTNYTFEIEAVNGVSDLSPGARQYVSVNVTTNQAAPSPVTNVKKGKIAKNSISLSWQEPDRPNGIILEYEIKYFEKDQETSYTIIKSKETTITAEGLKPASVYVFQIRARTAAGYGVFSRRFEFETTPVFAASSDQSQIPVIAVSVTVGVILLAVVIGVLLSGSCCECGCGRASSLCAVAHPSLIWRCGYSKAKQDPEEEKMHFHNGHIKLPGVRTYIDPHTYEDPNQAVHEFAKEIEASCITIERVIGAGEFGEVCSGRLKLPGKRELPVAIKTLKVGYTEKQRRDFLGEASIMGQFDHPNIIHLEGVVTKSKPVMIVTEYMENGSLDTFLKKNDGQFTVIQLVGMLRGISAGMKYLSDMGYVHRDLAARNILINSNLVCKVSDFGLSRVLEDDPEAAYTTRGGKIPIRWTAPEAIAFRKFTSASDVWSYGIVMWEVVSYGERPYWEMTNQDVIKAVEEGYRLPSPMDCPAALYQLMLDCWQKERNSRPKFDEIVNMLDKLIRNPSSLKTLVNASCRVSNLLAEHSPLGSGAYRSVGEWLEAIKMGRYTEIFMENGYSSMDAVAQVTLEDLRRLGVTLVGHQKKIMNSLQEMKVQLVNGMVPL
SSTK/TSSK6, sequence (Q9BXA6 whole entry): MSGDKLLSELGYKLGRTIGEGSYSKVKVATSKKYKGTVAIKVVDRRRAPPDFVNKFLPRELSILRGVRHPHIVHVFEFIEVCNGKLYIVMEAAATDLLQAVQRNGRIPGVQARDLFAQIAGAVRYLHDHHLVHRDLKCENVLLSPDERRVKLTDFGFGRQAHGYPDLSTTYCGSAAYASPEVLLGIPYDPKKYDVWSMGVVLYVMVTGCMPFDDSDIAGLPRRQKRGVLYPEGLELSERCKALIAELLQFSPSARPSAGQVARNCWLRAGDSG
NEK6, sequence (Q9HC98 whole entry): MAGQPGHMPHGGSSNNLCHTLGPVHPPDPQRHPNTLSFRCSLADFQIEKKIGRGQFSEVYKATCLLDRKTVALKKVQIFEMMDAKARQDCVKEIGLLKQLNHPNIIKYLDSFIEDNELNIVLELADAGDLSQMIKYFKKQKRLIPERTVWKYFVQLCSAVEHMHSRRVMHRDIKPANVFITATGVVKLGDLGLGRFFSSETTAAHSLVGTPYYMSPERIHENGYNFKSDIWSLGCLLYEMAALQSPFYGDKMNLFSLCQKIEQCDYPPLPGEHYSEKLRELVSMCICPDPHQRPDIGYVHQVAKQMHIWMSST

For `CCn1cnc2c(NCc3ccc(-c4ccccn4)nc3)nc(-c3ccc(N)nc3)nc21` [Example 53, N-([2,2′-bipyridin]-5-ylmethyl)-2-(6-aminopyridin-3-yl)-9-ethyl-9H-purin-6-amine], the “Pol II CTD (Ser2) phosphorylation” value [1] was “inhibited Pol II CTD (Ser2) phosphorylation”, the “Pol II CTD (Ser2) phosphorylation” value ([1]; listed as Compound 53) was “strong dose-dependent suppression of Pol II phosphorylation” and the anticancer efficacy (SK-Br3 xenograft) was “anticancer efficacy in a dose-dependent manner”. The remaining activity at 10 µM (CDK9/cyclin K) was 1.07%, the remaining activity at 10 µM (EPHA6) was 3.04% and the remaining activity at 10 µM (DYRK1/DYRKIA) was 3.85%. The remaining activity at 10 µM (MYLK4) was 4.07%, the remaining activity at 10 µM (EPHA5) was 5.86% and the remaining activity at 10 µM (CDK14/cyclin Y (PFTK1)) was 14%. For the same compound, the remaining activity at 10 µM (CK1a1) was 26.5%, the remaining activity at 10 µM (CK1g2) was 27% and the remaining activity at 10 µM (STK38/NDR1) was 28.3%. It also gave a remaining activity at 10 µM (FGFR1) of 28.8%, a remaining activity at 10 µM (EPHA7) of 31.3% and a remaining activity at 10 µM (TIE2/TEK) of 34.8%. For the same compound, the remaining activity at 10 µM (TXK) was 34.9%, the remaining activity at 10 µM (JNK1) was 41.6% and the remaining activity at 10 µM (HIPK4) was 43.9%. It also gave a remaining activity at 10 µM (BMPR2) of 52.4%, a remaining activity at 10 µM (MST2/STK3) of 53.5% and a remaining activity at 10 µM (FGR) of 54.6%. For the same compound, the remaining activity at 10 µM (RSK3) was 58%, the remaining activity at 10 µM (CAMK2b) was 65.2% and the remaining activity at 10 µM (PLK1) was 68.3%. For the same compound, the remaining activity at 10 µM (TLK2) was 72.2%, the remaining activity at 10 µM (PKN3/PRK3) was 81.5% and the remaining activity at 10 µM (CK2a) was 84.2%. The remaining activity at 10 µM (SSTK/TSSK6) was 86.9%, the remaining activity at 10 µM (NEK6) was 92.1% and the remaining activity at 10 µM (PKA) was 93.1%. For the same compound, the remaining activity at 10 µM (NEK11) was 94.2%, the remaining activity at 10 µM (PLK3) was 94.4% and the remaining activity at 10 µM (MKK7) was 96.3%. The remaining activity at 10 µM (IRAK2) was 97.5%, the remaining activity at 10 µM (PIM1) was 97.8% and the remaining activity at 10 µM (GRK2) was 99.1%.
